Results: publication PMC11121924, “Protopine and Allocryptopine Interactions with Plasma Proteins” (International Journal of Molecular Sciences, 2024)

Assays:
[1] = target: T1, human serum albumin (HSA) (Homo sapiens, UniProt P02768); test: UV-Vis absorption titration (Benesi-Hildebrand); dPhe marker displacement by fluorescence; assay type: binding
T1 construct: gene ALB

[2] = target: T2, α-1-acid glycoprotein (AAG, orosomucoid) (Homo sapiens, UniProt P02763); test: UV-Vis absorption titration (Benesi-Hildebrand); quinaldine red displacement by fluorescence; assay type: binding
T2 construct: gene ORM1
T2 sequence (P02763 19-201): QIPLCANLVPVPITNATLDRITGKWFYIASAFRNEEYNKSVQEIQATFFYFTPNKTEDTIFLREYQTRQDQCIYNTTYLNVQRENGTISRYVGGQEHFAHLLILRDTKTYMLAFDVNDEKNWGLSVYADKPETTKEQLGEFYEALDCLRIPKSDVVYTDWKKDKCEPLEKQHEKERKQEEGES

T1 sequence (P02768 25-609): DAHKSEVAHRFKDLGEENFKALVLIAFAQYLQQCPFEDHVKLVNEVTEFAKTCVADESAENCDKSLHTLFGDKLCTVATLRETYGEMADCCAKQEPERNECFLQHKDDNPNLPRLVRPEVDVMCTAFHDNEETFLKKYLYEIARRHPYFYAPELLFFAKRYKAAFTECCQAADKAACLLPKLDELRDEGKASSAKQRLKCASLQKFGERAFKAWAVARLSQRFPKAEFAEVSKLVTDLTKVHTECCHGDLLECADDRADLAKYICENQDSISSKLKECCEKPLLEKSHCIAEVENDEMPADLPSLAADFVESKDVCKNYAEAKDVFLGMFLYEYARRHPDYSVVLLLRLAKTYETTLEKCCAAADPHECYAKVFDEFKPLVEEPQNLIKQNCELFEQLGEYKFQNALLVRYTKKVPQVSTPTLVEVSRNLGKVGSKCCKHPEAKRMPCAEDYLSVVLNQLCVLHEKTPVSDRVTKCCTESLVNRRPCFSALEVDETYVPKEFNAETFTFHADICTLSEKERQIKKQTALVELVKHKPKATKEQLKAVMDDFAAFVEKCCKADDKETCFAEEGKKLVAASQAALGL

Row | SMILES | Kd [1] | Kd ([2]; read-out: Kapp.10^4 [dm^3mol^-1] (converted)) | Kapp.10^4 [dm^3mol^-1] [2]
1 | COc1ccc2c(c1OC)CN(C)CCc1cc3c(cc1C(=O)C2)OCO3 [ACP, allocryptopine] | 19.9 µM | 44.6 µM | 
2 | CN1CCc2cc3c(cc2C(=O)Cc2ccc4c(c2C1)OCO4)OCO3 [PP, protopine] | 46.9 µM |  | 1.34 ± 0.0.03
